# Laboratory results reported in US20230085307A1, “PYRIDAZINONE COMPOUND AND HERBICIDE” (NISSAN CHEMICAL CORPORATION, priority 2019, published 2023).
# Columns and labels:
# barnyard grass [1] = assay: Test Example 5: herbicidal effect by foliage application, plastic box (Table 20, symbol H); assay type: in vivo, barnyard grass (Echinochloa crus-galli); conditions: foliage application, 320 g/ha, three weeks after application
# Outline: (§1)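 Plants were sown into sterilized diluvial soil under about 1.5 cm cover and kept in a greenhouse at 25° C. to 30° C. Fourteen days on, foliage received an even spray of the diluted emulsion. Herbicidal or crop effect was judged three weeks afterwards.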
# barnyard grass [2] = assay: Test Example 4: herbicidal effect by soil treatment (Table 19, symbol H); assay type: in vivo, barnyard grass (Echinochloa crus-galli); conditions: amount of applied herbicide 320 g/ha
# Outline: (§2)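 In this soil treatment, the formulated compound reached the seeds only through the soil: seeds were buried about 1.5 cm deep in sterilized diluvial soil, then the diluted emulsion was sprayed over the surface. After three weeks at 25° C. to 30° C. in a greenhouse, effects were graded on criteria from an earlier test.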
# persian speedwell [3] = assay: Test Example 5: herbicidal effect by foliage application, plastic box (Table 20, symbol R); assay type: in vivo, Persian speedwell (Veronica persica); conditions: foliage application, 320 g/ha, three weeks after application
# Outline: as §1
# false cleavers [4] = assay: Test Example 4: herbicidal effect by soil treatment (Table 19, symbol Q); assay type: in vivo, false cleavers (Galium spurium); conditions: amount of applied herbicide 320 g/ha
# Outline: as §2
# windgrass [5] = assay: Test Example 4: herbicidal effect by soil treatment (Table 19, symbol L); assay type: in vivo, windgrass (Apera spica-venti); conditions: amount of applied herbicide 320 g/ha
# Outline: as §2
# blackgrass [6] = assay: Test Example 5: herbicidal effect by foliage application, plastic box (Table 20, symbol J); assay type: in vivo, blackgrass (Alopecurus myosuroides); conditions: foliage application, 320 g/ha, three weeks after application
# Outline: as §1
# chickweed [7] = assay: Test Example 5: herbicidal effect by foliage application, plastic box (Table 20, symbol P); assay type: in vivo, common chickweed (Stellaria media); conditions: foliage application, 320 g/ha, three weeks after application
# Outline: as §1
# false cleavers [8] = assay: Test Example 5: herbicidal effect by foliage application, plastic box (Table 20, symbol Q); assay type: in vivo, false cleavers (Galium spurium); conditions: foliage application, 320 g/ha, three weeks after application
# Outline: as §1
# lambsquarters [9] = assay: Test Example 5: herbicidal effect by foliage application, plastic box (Table 20, symbol O); assay type: in vivo, lambsquarters (Chenopodium album); conditions: foliage application, 320 g/ha, three weeks after application
# Outline: as §1
# Italian ryegrass [10] = assay: Test Example 5: herbicidal effect by foliage application, plastic box (Table 20, symbol K); assay type: in vivo, Italian ryegrass (Lolium multiflorum); conditions: foliage application, 320 g/ha, three weeks after application
# Outline: as §1
# chickweed [11] = assay: Test Example 4: herbicidal effect by soil treatment (Table 19, symbol P); assay type: in vivo, common chickweed (Stellaria media); conditions: amount of applied herbicide 320 g/ha
# Outline: as §2
# southern crabgrass [12] = assay: Test Example 4: herbicidal effect by soil treatment (Table 19, symbol F); assay type: in vivo, southern crabgrass (Digitaria ciliaris); conditions: amount of applied herbicide 320 g/ha
# Outline: as §2
# green foxtail [13] = assay: Test Example 4: herbicidal effect by soil treatment (Table 19, symbol G); assay type: in vivo, green foxtail (Setaria viridis); conditions: amount of applied herbicide 320 g/ha
# Outline: as §2
# rice flat sedge = assay: Test Example 3: herbicidal effect by foliage application, Wagner pot (Table 18, symbol E); assay type: in vivo, rice flat sedge (Cyperus iria); conditions: amount of applied herbicide 320 g/ha
# Outline: (§3)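 Plants were sown in alluvial soil held under 0.1–0.5 cm standing water and grown 14 days in a greenhouse at 25–30 °C. An emulsifiable formulation, water-diluted to the set dose, was then sprayed onto the foliage, and effects were scored three weeks later using previously defined criteria.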
# persian speedwell [14] = assay: Test Example 4: herbicidal effect by soil treatment (Table 19, symbol R); assay type: in vivo, Persian speedwell (Veronica persica); conditions: amount of applied herbicide 320 g/ha
# Outline: as §2
# lambsquarters [15] = assay: Test Example 4: herbicidal effect by soil treatment (Table 19, symbol O); assay type: in vivo, lambsquarters (Chenopodium album); conditions: amount of applied herbicide 320 g/ha
# Outline: as §2
# velvetleaf [16] = assay: Test Example 5: herbicidal effect by foliage application, plastic box (Table 20, symbol M); assay type: in vivo, velvetleaf (Abutilon theophrasti); conditions: foliage application, 320 g/ha, three weeks after application
# Outline: as §1
# Italian ryegrass [17] = assay: Test Example 4: herbicidal effect by soil treatment (Table 19, symbol K); assay type: in vivo, Italian ryegrass (Lolium multiflorum); conditions: amount of applied herbicide 320 g/ha
# Outline: as §2
# redroot pigweed [18] = assay: Test Example 4: herbicidal effect by soil treatment (Table 19, symbol N); assay type: in vivo, redroot pigweed (Amaranthus retroflexus); conditions: amount of applied herbicide 320 g/ha
# Outline: as §2
# southern crabgrass [19] = assay: Test Example 5: herbicidal effect by foliage application, plastic box (Table 20, symbol F); assay type: in vivo, southern crabgrass (Digitaria ciliaris); conditions: foliage application, 320 g/ha, three weeks after application
# Outline: as §1
# blackgrass [20] = assay: Test Example 4: herbicidal effect by soil treatment (Table 19, symbol J); assay type: in vivo, blackgrass (Alopecurus myosuroides); conditions: amount of applied herbicide 320 g/ha
# Outline: as §2
# wild oat [21] = assay: Test Example 5: herbicidal effect by foliage application, plastic box (Table 20, symbol I); assay type: in vivo, wild oat (Avena fatua); conditions: foliage application, 320 g/ha, three weeks after application
# Outline: as §1
# redroot pigweed [22] = assay: Test Example 5: herbicidal effect by foliage application, plastic box (Table 20, symbol N); assay type: in vivo, redroot pigweed (Amaranthus retroflexus); conditions: foliage application, 320 g/ha, three weeks after application
# Outline: as §1
# velvetleaf [23] = assay: Test Example 4: herbicidal effect by soil treatment (Table 19, symbol M); assay type: in vivo, velvetleaf (Abutilon theophrasti); conditions: amount of applied herbicide 320 g/ha
# Outline: as §2
# windgrass [24] = assay: Test Example 5: herbicidal effect by foliage application, plastic box (Table 20, symbol L); assay type: in vivo, windgrass (Apera spica-venti); conditions: foliage application, 320 g/ha, three weeks after application
# Outline: as §1
# wild oat [25] = assay: Test Example 4: herbicidal effect by soil treatment (Table 19, symbol I); assay type: in vivo, wild oat (Avena fatua); conditions: amount of applied herbicide 320 g/ha
# Outline: as §2
# Chinese sprangletop = assay: Test Example 3: herbicidal effect by foliage application, Wagner pot (Table 18, symbol D); assay type: in vivo, chinese sprangletop (Leptochloa chinensis); conditions: amount of applied herbicide 320 g/ha
# Outline: as §3
# barnyard grass [26] = assay: Test Example 3: herbicidal effect by foliage application, Wagner pot (Table 18, symbol H); assay type: in vivo, barnyard grass (Echinochloa crus-galli); conditions: amount of applied herbicide 320 g/ha
# Outline: as §3
# green foxtail [27] = assay: Test Example 5: herbicidal effect by foliage application, plastic box (Table 20, symbol G); assay type: in vivo, green foxtail (Setaria viridis); conditions: foliage application, 320 g/ha, three weeks after application
# Outline: as §1
smiles,measurement,setting,value
CCCC(=O)Oc1c(C)nn(C)c(=O)c1-c1c(-c2ccc(F)cc2)sc2cc(Cl)ccc12 [3-032],"H: barnyard grass, herbicidal effect grade",barnyard grass [1],4 (Herbicidal rate of 70% or more and less than 90%)
same,"H: barnyard grass, herbicidal effect grade",barnyard grass [2],0 (Herbicidal rate of 5% or less (almost no effect))
same,"R: persian speedwell, herbicidal effect grade",persian speedwell [3],5 (Herbicidal rate of 90% or more (almost completely withered))
same,"Q: false cleavers, herbicidal effect grade",false cleavers [4],3 (Herbicidal rate of 40% or more and less than 70%)
same,"L: windgrass, herbicidal effect grade",windgrass [5],3 (Herbicidal rate of 40% or more and less than 70%)
same,"J: blackgrass, herbicidal effect grade",blackgrass [6],4 (Herbicidal rate of 70% or more and less than 90%)
same,"P: chickweed, herbicidal effect grade",chickweed [7],5 (Herbicidal rate of 90% or more (almost completely withered))
same,"Q: false cleavers, herbicidal effect grade",false cleavers [8],0 (Herbicidal rate of 5% or less (almost no effect))
same,"O: lambsquarters, herbicidal effect grade",lambsquarters [9],4 (Herbicidal rate of 70% or more and less than 90%)
same,"K: Italian ryegrass, herbicidal effect grade",Italian ryegrass [10],4 (Herbicidal rate of 70% or more and less than 90%)
same,"P: chickweed, herbicidal effect grade",chickweed [11],4 (Herbicidal rate of 70% or more and less than 90%)
same,"F: southern crabgrass, herbicidal effect grade",southern crabgrass [12],0 (Herbicidal rate of 5% or less (almost no effect))
same,"G: green foxtail, herbicidal effect grade",green foxtail [13],0 (Herbicidal rate of 5% or less (almost no effect))
same,herbicidal effect on E: rice flat sedge,rice flat sedge,3 (Herbicidal rate of 40% or more and less than 70%)
same,"R: persian speedwell, herbicidal effect grade",persian speedwell [14],5 (Herbicidal rate of 90% or more (almost completely withered))
same,"O: lambsquarters, herbicidal effect grade",lambsquarters [15],4 (Herbicidal rate of 70% or more and less than 90%)
same,"M: velvetleaf, herbicidal effect grade",velvetleaf [16],4 (Herbicidal rate of 70% or more and less than 90%)
same,"K: Italian ryegrass, herbicidal effect grade",Italian ryegrass [17],0 (Herbicidal rate of 5% or less (almost no effect))
same,"N: redroot pigweed, herbicidal effect grade",redroot pigweed [18],4 (Herbicidal rate of 70% or more and less than 90%)
same,"F: southern crabgrass, herbicidal effect grade",southern crabgrass [19],4 (Herbicidal rate of 70% or more and less than 90%)
same,"J: blackgrass, herbicidal effect grade",blackgrass [20],0 (Herbicidal rate of 5% or less (almost no effect))
same,"I: wild oat, herbicidal effect grade",wild oat [21],5 (Herbicidal rate of 90% or more (almost completely withered))
same,"N: redroot pigweed, herbicidal effect grade",redroot pigweed [22],5 (Herbicidal rate of 90% or more (almost completely withered))
same,"M: velvetleaf, herbicidal effect grade",velvetleaf [23],0 (Herbicidal rate of 5% or less (almost no effect))
same,"L: windgrass, herbicidal effect grade",windgrass [24],5 (Herbicidal rate of 90% or more (almost completely withered))
same,"I: wild oat, herbicidal effect grade",wild oat [25],0 (Herbicidal rate of 5% or less (almost no effect))
same,herbicidal effect on D: Chinese sprangletop,Chinese sprangletop,3 (Herbicidal rate of 40% or more and less than 70%)
same,herbicidal effect on H: barnyard grass,barnyard grass [26],5 (Herbicidal rate of 90% or more (almost completely withered))
same,"G: green foxtail, herbicidal effect grade",green foxtail [27],4 (Herbicidal rate of 70% or more and less than 90%)
